For data set [1] the following is noted: human, in vivo. As for the experimental part: There were two studies in the project. Study 1 was under the fasting state, and study 2 was under the fed state. […] The studies aimed to compare the PK profiles and safeties of the T and R drugs. The study protocols were approved by the Wuxi People’s Hospital Ethics Committee (Approval No. 2018LLPJ-I-14-03) and were conducted at Wuxi People’s Hospital Affiliated to Nanjing Medical University, Jiangsu Province, China. The studies were performed in accordance with the principles of the World Medical Association (WMA) Declaration of Helsinki. All volunteers signed written informed consents before enrollment.
Subjects received a single oral dose of the T or R drug in each period in a randomized way under either fasting or fed conditions, with a wash-out of 7 days. For the fed study, subjects finished the high-fat diet (containing protein 16.52%, fat 56.85%, carbohydrate 26.63%) in 30 min and were given the drug with 240 ml of a 20% glucose solution in water 30 min after they started eating the diet. For the fasting study, the drug was administered with 240 ml of a 20% glucose solution in water under the fasting state. An overnight fast for at least 10 h before administration was required. Subjects were not allowed to drink water 1 h before and after dosing, and lunch could be served only 4 h after dosing for both studies.
Venous blood samples (4 ml) were collected from an intravenous indwelling catheter before dosing and at 0.5, 1, 1.5, 2, 2.5, 3, 3.5, 4, 4.5, 5, 6, 7, 8, 9, 10, 11, 12, 14, 24, 32, 48, and 72 h after dosing for both fed and fasting studies. Blood samples were drawn into BD Vacutainers® with ethylene diamine tetra acetic acid (EDTA) anticoagulant. Plasma was separated by centrifugation at 2150 ± 5 g for 10 min at 2°C–8°C and stored at −20°C within 2 h after sampling and transferred to −80°C within 24 h.
Study data were summarized by descriptive statistics. The statistical analyses were performed using SAS® version 9.4. For the comparisons, Cmax, AUC0–t, and AUC0–∞ were analyzed using linear mixed models after logarithmic transformation. […] was achieved if the 90% CI of each parameter geometric means ratio (GMR) test/reference fell between 0.8–1.25. The statistical analysis included treatment, period, sequence, and subject-within-sequence as fixed effects. Tmax was compared between treatments using the non-parametric Wilcoxon signed-rank test.

On the set-up of data set [2]: method as in Schnaars et al., 2023. Conditions: metformin 1000 mg, IR; fed condition; ref Schnaars et al., 2023; cited from earlier work.
The conditions of data set [3]: sitagliptin, ref FDA, 2005, 2006, 2012; cited from earlier work.
Data set [4] in a line: Published BE studies of sitagliptin (100 mg) and sitagliptin–metformin (50/1000 mg) IR fixed-dose combination. The format is in vivo. Conditions: sitagliptin (100 mg) alone; fasting condition; published values (ref Schnaars et al., 2023) compared with own data.

By Cmax is commonly meant the peak of the concentration-time curve.

Consider `CN(C)C(=N)N=C(N)N` [Metformin, metformin], for which, in data set [1], the “Intra-individual variation of AUC0-t” value was 13.01%, the “Intra-individual variation of AUC0-∞” value worked out at 13.31% and the “Intra-individual variation of Cmax” value is 11.61%. Besides, in data set [2], the Cmax is 1.59289 ng/mL and the “median Tmax” value is 3.5 h.
With `N[C@@H](CC(=O)N1CCn2c(nnc2C(F)(F)F)C1)Cc1cc(F)c(F)cc1F` [Sitagliptin, sitagliptin], the t1/2 entry in data set [3] is listed as “around 12 h”. Moreover, in data set [1], the “Intra-individual variation of AUC0-t” value is reported as 6.05%, the “Intra-individual variation of AUC0-∞” value was determined as 6.04% and the “Intra-individual variation of Cmax” value turned out to be 19.42%. Besides, in data set [4], the “Cmax, AUC0−t, AUC0−∞ higher than the data of this study” value is on record as 14–32%.

(Values after publication PMC10073488 (Frontiers in Pharmacology, 2023).)
